# Patent US11524966B1 (Valo Early Discovery, Inc., priority 2017, dated 2022)
# Molecular target: T1, USP28 (USP28-5(1-1077)-TEV-6*His; LifeSensors) (Homo sapiens, UniProt Q96RU2)
# T1 construct: construct USP28 (USP28-5(1-1077)-TEV-6*His; LifeSensors); TEV cleavage site (C); 6xHis (C); purchased LifeSensors
# T1 sequence (Q96RU2 1-1077): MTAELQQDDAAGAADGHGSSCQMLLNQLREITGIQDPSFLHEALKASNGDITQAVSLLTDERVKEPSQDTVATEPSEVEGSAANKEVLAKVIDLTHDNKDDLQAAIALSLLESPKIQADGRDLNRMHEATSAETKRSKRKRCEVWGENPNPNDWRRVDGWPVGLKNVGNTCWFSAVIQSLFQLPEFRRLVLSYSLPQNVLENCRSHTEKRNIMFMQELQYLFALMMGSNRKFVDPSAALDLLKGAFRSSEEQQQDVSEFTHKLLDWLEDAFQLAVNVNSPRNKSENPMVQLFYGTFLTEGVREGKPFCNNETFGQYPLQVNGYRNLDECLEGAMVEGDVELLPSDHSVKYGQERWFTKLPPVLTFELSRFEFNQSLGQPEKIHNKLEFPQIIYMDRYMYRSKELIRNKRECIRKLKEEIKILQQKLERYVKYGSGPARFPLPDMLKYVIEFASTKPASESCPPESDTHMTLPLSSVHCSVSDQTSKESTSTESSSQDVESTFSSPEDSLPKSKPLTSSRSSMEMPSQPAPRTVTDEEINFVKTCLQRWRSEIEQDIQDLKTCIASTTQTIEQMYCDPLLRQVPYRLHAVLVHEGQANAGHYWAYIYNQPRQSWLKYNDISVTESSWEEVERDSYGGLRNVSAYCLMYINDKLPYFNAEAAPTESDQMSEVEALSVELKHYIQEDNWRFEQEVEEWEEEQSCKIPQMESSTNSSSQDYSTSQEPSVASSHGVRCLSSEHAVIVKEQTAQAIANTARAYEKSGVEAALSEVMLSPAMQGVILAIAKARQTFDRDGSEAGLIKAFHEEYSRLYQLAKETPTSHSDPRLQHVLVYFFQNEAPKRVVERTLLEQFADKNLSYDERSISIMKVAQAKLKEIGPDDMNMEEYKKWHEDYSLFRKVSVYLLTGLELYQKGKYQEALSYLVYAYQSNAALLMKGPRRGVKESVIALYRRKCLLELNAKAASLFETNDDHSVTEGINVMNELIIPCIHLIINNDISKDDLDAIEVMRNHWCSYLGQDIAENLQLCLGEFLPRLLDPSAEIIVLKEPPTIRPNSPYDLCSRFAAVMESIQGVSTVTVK
# Experiment: Ubiquitin-Rhodamine 110 Assay for USP28 Activity, Example A-1(b)
# Assay type: biochemical
# Conditions: Ubiquitin-Rhodamine 110 assay, Example A-1(b)
# Method: Example A-1(b): Biochemical Assay: Ubiquitin-Rhodamine 110 Assay for USP28 Activity
# Each assay was performed in a final volume of 20 μL in assay buffer containing 20 mM Tris-HCl (pH 8.0, (1M Tris-HCl, pH 8.0 solution; Corning 46-031-CM)), 2 mM CaCl2) (1M Calcium Chloride solution; Sigma #21114) 2 mM BME (2-Mercaptoethanol; Sigma 63689-25ML-F), 0.01% Prionex ([…] filtered, Sigma #G-0411), and 0.01% Triton X-100. Stock compound solutions were stored at −20° C. as 10 mM in DMSO. Up to 1 month prior to the assay, 2 mM test compounds were pre-dispensed into assay plates (Black, low volume; Corning #3820) and frozen at −20° C. Prestamped assay plates were allowed to come to room temperature on the day of the assay. For the screen, 100 nL of 2 mM was pre-dispensed for a final screening concentration of 10 μM (DMSO(fc)=0.5%). […] Plates were incubated stacked for 90 minutes at room temperature before fluorescence was read on the Envision (Excitation at 485 nm and Emission at 535 nm; Perkin Elmer) or on the PheraSTAR (Excitation at 485 nm and Emission at 535 nm; BMG Labtech).
# For follow-up studies, each assay was performed in a final volume of 15 μL in assay buffer containing 20 mM Tris-HCl (pH 8.0, (1M Tris-HCl, pH 8.0 solution; Corning 46-031-CM)), 3 mM BME (2-Mercaptoethanol; Sigma 63689-25ML-F), 0.03% BGG (0.22 μM filtered, Sigma, G7516-25G), and 0.01% Triton X-100 (Sigma, T9284-10L). Nanoliter quantities of either an 8-point or 10-point, 3-fold serial dilution in DMSO was pre-dispensed into assay plates (Perkin Elmer, ProxiPlate-384 F Plus, #) for a final test concentration of either 25 μM to 11 nM or 25 μM to 1.3 nM, respectively. Enzyme USP28, construct USP28 (USP28-5(1-1077)-TEV-6*His; LifeSensors) concentration and incubation times were optimized for the maximal signal-to-background while maintaining initial velocity conditions at a fixed substrate concentration. The final concentration of the enzyme in the assay was 75 pM. Final substrate (Ub-Rh110; Ubiquitin-Rhodamine 110, R&D Systems #U-555) concentration was 25 nM with [Ub-Rh110]<<Km. 5 μL of 2× enzyme was added to assay plates (pre-stamped with compound) preincubated with USP28 for 30 minutes and then 5 μL of 2×Ub-Rh110 was added to assay plates. Plates were incubated stacked for 20 minutes at room temperature before 5 μL of stop solution was added (final concentration of 10 mM citric acid (Sigma, 251275-500G)). Fluorescence was read on the Envision (Excitation at 485 nm and Emission at 535 nm; Perkin Elmer) or on the PheraSTAR (Excitation at 485 nm and Emission at 535 nm; BMG Labtech).
# For assay formats Example A-1(a), A-1(b), and A-2, data were reported as percent inhibition compared with control wells based on the following equation: % inh=1−((FLU−AveLow)/(AveHigh−AveLow)) where FLU=measured Fluorescence, AveLow=average Fluorescence of no enzyme control (n=16), and AveHigh=average Fluorescence of DMSO control (n=16). IC50 values were determined by curve fitting of the standard 4 parameter logistic fitting algorithm included in the Activity Base software package: IDBS XE Designer Model 205. Data is fitted using the Levenburg Marquardt algorithm.
row,Compound,USP28 A-1(b) IC50 range
1,"Cc1ccc2c(N)c(C(=O)N[C@H]3CCc4cc(N5CCNCC5)ccc4C3)sc2n1 (single isomer, unassigned) [Example 11-21]",++ (0.2-2 μM)
2,"O=C(N[C@H]1COc2cc(N3CCNCC3)ccc2C1)c1cnn2c(Br)cccc12 [Example 457, (R)-7-bromo-N-(7-(piperazin-1-yl)chroman-3-yl)pyrazolo[1,5-a]pyridine-3-carboxamide]",++ (0.2-2 μM)
3,"Cc1ccc2c(N)c(C(=O)N[C@@H]3CCc4cc(N5CCNCC5)ccc4C3)sc2n1 (single isomer, unassigned) [Example 11-22]",++ (0.2-2 μM)
4,"CN[C@@H]1CCN(c2ccc3c(c2)CC[C@H](NC(=O)c2sc4nc(C)cnc4c2N)C3)C1 (single isomer, unassigned) [Example 11-27]",++ (0.2-2 μM)

# Same assay, conditions: Ubiquitin-Rhodamine 110 assay, format Example A-1(b)
row,Compound,USP28 A-1(b) IC50 range
1,"Cc1nc2sc(C(=O)N[C@@H]3CCc4cc(N5CCNCC5)ccc4C3)c(N)c2s1 (single isomer, unassigned) [Example 11-34]",++ (0.2-2 μM)
2,"Cc1ccc2c(N)c(C(=O)N[C@H]3CCc4cc(N5CC6CNCC(C5)O6)cc(F)c4C3)sc2n1 (single isomer, unassigned) [Example 11-39]",++ (0.2-2 μM)
